Assay results published in ChEMBL document CHEMBL5518240 (J Med Chem, 2024).
pIC50: −log10 of the molar value.

What was measured:
[1] = target: T1, Protein cereblon/CREB-binding protein (Homo sapiens, UniProt Q92793+Q96SW2); experiment: PROTAC activity at CBP/CRBN in AR positive human VCaP cells assessed as maximal protein degradation at 4.1 nM incubated for 4 hrs by Western blot analysis relative to control; assay type: cell-based
Target sequence in this assay (Q92793 2-2442 limits assumed): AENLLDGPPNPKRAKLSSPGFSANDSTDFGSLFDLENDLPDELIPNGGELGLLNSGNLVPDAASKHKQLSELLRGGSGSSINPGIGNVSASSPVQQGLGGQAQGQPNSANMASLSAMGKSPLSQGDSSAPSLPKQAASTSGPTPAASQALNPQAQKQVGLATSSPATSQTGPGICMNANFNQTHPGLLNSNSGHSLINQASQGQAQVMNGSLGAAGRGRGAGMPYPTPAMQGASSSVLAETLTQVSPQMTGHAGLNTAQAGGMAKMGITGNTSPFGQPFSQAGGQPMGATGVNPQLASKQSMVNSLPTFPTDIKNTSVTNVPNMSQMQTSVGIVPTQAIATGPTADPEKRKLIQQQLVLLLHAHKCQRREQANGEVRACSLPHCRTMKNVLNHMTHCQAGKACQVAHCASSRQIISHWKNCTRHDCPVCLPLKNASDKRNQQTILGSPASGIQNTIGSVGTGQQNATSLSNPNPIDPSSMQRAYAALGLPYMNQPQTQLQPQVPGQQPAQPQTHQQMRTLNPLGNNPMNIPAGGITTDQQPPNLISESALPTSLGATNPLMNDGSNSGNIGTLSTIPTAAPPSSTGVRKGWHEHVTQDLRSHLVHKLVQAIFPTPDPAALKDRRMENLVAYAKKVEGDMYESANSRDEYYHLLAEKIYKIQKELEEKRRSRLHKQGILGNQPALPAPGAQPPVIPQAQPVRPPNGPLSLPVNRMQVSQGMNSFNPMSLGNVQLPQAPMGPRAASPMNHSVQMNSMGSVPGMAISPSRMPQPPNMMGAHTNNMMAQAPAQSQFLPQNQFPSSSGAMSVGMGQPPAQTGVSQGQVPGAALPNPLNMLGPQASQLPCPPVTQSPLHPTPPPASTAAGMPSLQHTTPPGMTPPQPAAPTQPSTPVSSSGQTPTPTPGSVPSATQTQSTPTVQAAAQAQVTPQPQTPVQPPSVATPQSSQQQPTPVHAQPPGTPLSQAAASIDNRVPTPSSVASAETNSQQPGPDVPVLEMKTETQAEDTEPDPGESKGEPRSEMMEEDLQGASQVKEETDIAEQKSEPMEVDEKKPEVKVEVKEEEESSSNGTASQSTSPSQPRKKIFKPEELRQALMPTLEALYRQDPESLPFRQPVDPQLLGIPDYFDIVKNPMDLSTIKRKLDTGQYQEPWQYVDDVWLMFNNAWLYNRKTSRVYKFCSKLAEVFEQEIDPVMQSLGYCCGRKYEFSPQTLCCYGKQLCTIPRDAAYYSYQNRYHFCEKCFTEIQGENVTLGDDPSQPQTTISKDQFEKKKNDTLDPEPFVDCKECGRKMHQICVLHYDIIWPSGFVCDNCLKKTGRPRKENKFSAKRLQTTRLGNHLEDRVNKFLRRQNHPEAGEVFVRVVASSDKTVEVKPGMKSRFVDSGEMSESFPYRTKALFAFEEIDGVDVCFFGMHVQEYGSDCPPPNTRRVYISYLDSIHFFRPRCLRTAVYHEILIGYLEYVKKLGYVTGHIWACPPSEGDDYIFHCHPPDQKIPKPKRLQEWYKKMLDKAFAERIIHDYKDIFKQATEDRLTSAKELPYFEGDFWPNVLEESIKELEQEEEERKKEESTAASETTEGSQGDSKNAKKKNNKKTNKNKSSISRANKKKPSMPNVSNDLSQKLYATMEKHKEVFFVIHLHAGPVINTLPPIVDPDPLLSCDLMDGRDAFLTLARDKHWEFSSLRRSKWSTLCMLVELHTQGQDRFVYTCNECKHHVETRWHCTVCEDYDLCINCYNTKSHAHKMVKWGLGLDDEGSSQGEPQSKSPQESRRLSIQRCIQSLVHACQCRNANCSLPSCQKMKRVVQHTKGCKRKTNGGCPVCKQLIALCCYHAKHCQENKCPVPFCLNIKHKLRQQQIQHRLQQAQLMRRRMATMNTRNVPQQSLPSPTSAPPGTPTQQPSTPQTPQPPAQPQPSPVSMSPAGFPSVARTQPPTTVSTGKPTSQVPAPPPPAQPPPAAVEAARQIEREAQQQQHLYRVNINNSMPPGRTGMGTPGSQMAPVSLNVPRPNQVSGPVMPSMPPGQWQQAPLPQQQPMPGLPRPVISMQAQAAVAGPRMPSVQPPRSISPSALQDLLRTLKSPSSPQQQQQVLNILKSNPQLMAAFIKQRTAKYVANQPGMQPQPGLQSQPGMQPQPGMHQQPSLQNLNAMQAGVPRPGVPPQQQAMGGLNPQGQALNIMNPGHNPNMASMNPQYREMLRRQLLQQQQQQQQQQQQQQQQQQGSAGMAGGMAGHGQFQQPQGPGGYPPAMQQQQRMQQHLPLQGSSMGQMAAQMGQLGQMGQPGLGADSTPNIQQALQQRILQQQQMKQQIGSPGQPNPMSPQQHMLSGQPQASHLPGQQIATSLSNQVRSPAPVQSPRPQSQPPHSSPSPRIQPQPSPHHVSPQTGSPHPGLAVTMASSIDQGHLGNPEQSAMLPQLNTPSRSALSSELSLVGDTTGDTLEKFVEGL
Target sequence in this assay (Q96SW2 whole entry partner): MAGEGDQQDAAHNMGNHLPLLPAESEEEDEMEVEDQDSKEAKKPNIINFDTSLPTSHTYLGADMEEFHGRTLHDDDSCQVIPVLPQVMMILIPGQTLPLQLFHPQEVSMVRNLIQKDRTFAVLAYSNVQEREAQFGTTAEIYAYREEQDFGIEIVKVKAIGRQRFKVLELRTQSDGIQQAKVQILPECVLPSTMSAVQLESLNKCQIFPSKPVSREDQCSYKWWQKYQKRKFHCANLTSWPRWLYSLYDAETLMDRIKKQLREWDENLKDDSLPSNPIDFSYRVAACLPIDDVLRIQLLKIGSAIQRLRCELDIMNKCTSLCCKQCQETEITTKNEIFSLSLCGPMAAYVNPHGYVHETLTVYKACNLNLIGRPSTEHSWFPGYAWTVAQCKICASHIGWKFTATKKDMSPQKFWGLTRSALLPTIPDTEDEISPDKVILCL

VCaP [2] = experiment: Reduction in KLK3 gene expression in AR positive human VCaP cells assessed as reduction in mRNA level measured after 6 hrs by qRT-PCT analysis relative to control; assay type: functional, cell-based; settings: dose 0.1-1000 nM
[3] = Plasma concentration in CB17 SCID mouse xenografted with human VCaP cells at 1 mg/kg, po measured after 24 hrs by LC-MS/MS analysis; assay type: ADME, organism-based
[4] = target: T1, Protein cereblon/CREB-binding protein; experiment: In vivo PROTAC activity at p300/CRBN in human VCaP cells xenografted in CB17 SCID mouse assessed as reduction in CBP protein at 3 mg/kg, po measured after 24 hrs; assay type: functional, organism-based; design: scale not given: the % may be the effect or the level left
Target sequence in this assay (Q92793 2-2442 limits assumed): as the sequence (Q92793 2-2442 limits assumed) above
Target sequence in this assay (Q96SW2 whole entry partner): as the sequence (Q96SW2 whole entry partner) above

VCaP [5] = experiment: Potency index, ratio of GNE-049 IC50 to test compound IC50 for antiproliferative activity against AR positive human VCaP cells assessed inhibition of cell growth measured after 4 days by CellTiter-Glo Luminescent cell viability assay; assay type: functional; settings: time 4 day
[6] = target: T1, Protein cereblon/CREB-binding protein; experiment: PROTAC activity at CBP/CRBN in AR positive human VCaP cells assessed as maximal protein degradation at 37 nM incubated for 4 hrs by Western blot analysis relative to control; assay type: cell-based
Target sequence in this assay (Q92793 2-2442 limits assumed): as the sequence (Q92793 2-2442 limits assumed) above
Target sequence in this assay (Q96SW2 whole entry partner): as the sequence (Q96SW2 whole entry partner) above

VCaP [7] = experiment: Antitumor activity against human VCaP cells xenografted in CB17 SCID mouse model assessed as tumor growth inhibition at 1 mg/kg, po qd scheduled 5 days in a week measured on day 63; assay type: functional; settings: 1512 h, time 63 day, read-out: TGI
LNCaP [8] = experiment: Antiproliferative activity against AR positive human LNCaP cells assessed inhibition of cell growth measured after 4 days by CellTiter-Glo Luminescent cell viability assay; assay type: functional, cell-based; settings: 96 h
LNCaP [9] = experiment: Reduction in KLK3 gene expression in AR positive human LNCaP cells assessed as reduction in mRNA level measured after 6 hrs by qRT-PCT analysis relative to control; assay type: functional, cell-based; settings: dose 0.1-1000 nM
[10] = target: T2, Protein cereblon/Histone acetyltransferase p300 (Homo sapiens, UniProt Q09472+Q96SW2); experiment: PROTAC activity at p300/CRBN in human VCaP cells assessed as maximal protein degradation at 1 uM incubated for 4 hrs by Western blot analysis relative to control; assay type: cell-based
[11] = target: T2, Protein cereblon/Histone acetyltransferase p300; experiment: PROTAC activity at p300/CRBN in human 22Rv1 cells assessed as protein degradation incubated for 4 hrs by Western blot analysis; assay type: cell-based
VCaP [12] = experiment: Reduction in AR gene expression in AR positive human VCaP cells assessed as reduction in mRNA level measured after 6 hrs by qRT-PCT analysis relative to control; assay type: functional, cell-based; settings: dose 0.1-1000 nM
[13] = Drug exposure in CB17 SCID mouse xenografted with human VCaP cells assessed compound concentration in tumor at 1 mg/kg, po measured after 24 hrs by LC-MS/MS analysis; assay type: ADME, organism-based, Neoplasm; settings: in vivo, BLD = below limit of detection
[14] = target: T2, Protein cereblon/Histone acetyltransferase p300; experiment: PROTAC activity at p300/CRBN in AR positive human VCaP cells assessed as maximal protein degradation at 1000 nM incubated for 4 hrs by Western blot analysis relative to control; assay type: cell-based
[15] = target: T1, Protein cereblon/CREB-binding protein; experiment: In vivo PROTAC activity at CBP/CRBN in human VCaP cells xenografted in SCID mouse assessed as reduction in CBP protein at 3 mg/kg, po measured after 3 hrs; assay type: functional, organism-based; design: scale not given: the % may be the effect or the level left
Target sequence in this assay (Q92793 2-2442 limits assumed): as the sequence (Q92793 2-2442 limits assumed) above
Target sequence in this assay (Q96SW2 whole entry partner): as the sequence (Q96SW2 whole entry partner) above

[16] = Half life in male ICR mouse at 3 mg/kg, po measured upto 24 hrs by LC-MS/MS analysis; assay type: ADME, organism-based; settings: in vivo
[17] = target: T1, Protein cereblon/CREB-binding protein; experiment: In vivo PROTAC activity at CBP/CRBN in human VCaP cells xenografted in SCID mouse assessed as reduction in CBP protein at 3 mg/kg, po measured after 24 hrs; assay type: functional, organism-based; design: scale not given: the % may be the effect or the level left
Target sequence in this assay (Q92793 2-2442 limits assumed): as the sequence (Q92793 2-2442 limits assumed) above
Target sequence in this assay (Q96SW2 whole entry partner): as the sequence (Q96SW2 whole entry partner) above

[18] = Volume of distribution at steady state in male ICR mouse at 1 mg/kg, iv measured upto 24 hrs by LC-MS/MS analysis; assay type: ADME, organism-based; settings: in vivo, read-out: Vdss
[19] = Reduction in AR gene expression in AR positive human LNCaP cells assessed as reduction in mRNA level at 10 nM measured after 6 hrs by qRT-PCT analysis relative to control; assay type: functional
[20] = Reduction in AR gene expression in AR positive human VCaP cells assessed as reduction in mRNA level at 1 nM measured after 6 hrs by qRT-PCT analysis relative to control; assay type: functional
[21] = target: T2, Protein cereblon/Histone acetyltransferase p300; experiment: PROTAC activity at p300/CRBN in AR positive human VCaP cells assessed as maximal protein degradation at 111 nM incubated for 4 hrs by Western blot analysis relative to control; assay type: cell-based
[22] = Reduction in AR gene expression in AR positive human 22Rv1 cells assessed as reduction in mRNA level at 10 nM measured after 6 hrs by qRT-PCT analysis relative to control; assay type: functional, CWR22R
VCaP [23] = experiment: Reduction in c-Myc gene expression in AR positive human VCaP cells assessed as reduction in mRNA level measured after 6 hrs by qRT-PCT analysis relative to control; assay type: functional, cell-based; settings: dose 0.1-1000 nM
LNCaP [24] = experiment: Reduction in AR gene expression in AR positive human LNCaP cells assessed as reduction in mRNA level measured after 6 hrs by qRT-PCT analysis relative to control; assay type: functional, cell-based; settings: dose 0.1-1000 nM
[25] = Reduction in KLK3 gene expression in AR positive human LNCaP cells assessed as reduction in mRNA level at 10 nM measured after 6 hrs by qRT-PCT analysis relative to control; assay type: functional
[26] = target: T1, Protein cereblon/CREB-binding protein; experiment: PROTAC activity at CBP/CRBN in human 22Rv1 cells assessed as protein degradation incubated for 4 hrs by Western blot analysis; assay type: cell-based
[27] = Toxicity in CB17 SCID mouse xenografted with human VCaP cells assessed as weight loss at 0.3 to 1 mg/kg, po qd scheduled 5 days in a week measured on day 63; assay type: organism-based; settings: in vivo, 1512 h, dose 0.3-1 mg/kg, time 63 day
VCaP [28] = experiment: Antitumor activity against human VCaP cells xenografted in CB17 SCID mouse model assessed as tumor growth inhibition at 0.3 mg/kg, po qd scheduled 5 days in a week measured on day 63; assay type: functional; settings: 1512 h, time 63 day, read-out: TGI
[29] = target: T1, Protein cereblon/CREB-binding protein; experiment: PROTAC activity at CBP/CRBN in human 22Rv1 cells assessed as maximal protein degradation at 1 uM incubated for 4 hrs by Western blot analysis relative to control; assay type: cell-based
Target sequence in this assay (Q92793 2-2442 limits assumed): as the sequence (Q92793 2-2442 limits assumed) above
Target sequence in this assay (Q96SW2 whole entry partner): as the sequence (Q96SW2 whole entry partner) above

[30] = target: T1, Protein cereblon/CREB-binding protein; experiment: PROTAC activity at CBP/CRBN in human 22Rv1 cells assessed as reduction in protein level at 100 nM incubated for 4 hrs by multiplexed quantitative proteomics analysis relative to control; assay type: cell-based; design: scale not given: the % may be the effect or the level left
[31] = Efflux ratio of apparent permeability coefficient across basolateral to apical side over apical to basolateral side in human Caco-2 cells at 10 uM incubated for 120 mins by LC-MS/MS analysis; assay type: ADME, cell-based; settings: caco-2, 2 h
[32] = Reduction in c-Myc gene expression in AR positive human VCaP cells assessed as reduction in mRNA level at 1 nM measured after 6 hrs by qRT-PCT analysis relative to control; assay type: functional
CWR22R = experiment: Reduction in AR gene expression in AR positive human 22Rv1 cells assessed as reduction in mRNA level measured after 6 hrs by qRT-PCT analysis relative to control; assay type: functional, cell-based; settings: dose 0.1-1000 nM

Activity [1]: 97% | concentration at 24 h [3]: 16 ng/mL | Activity [4]: > 95% | Activity [6]: 98% | pIC50 (LNCaP [8]): 8.80 | Emax [10]: > 95% | DC50 [11]: 400 pM | Drug uptake [13]: Bld | Activity [14]: 75% | Activity [15]: > 95% | half-life [16]: 2.6 h | Activity [17]: > 95% | Vd [18]: 0.4 L/kg | Activity [21]: 100% | DC50 [26]: 200 pM | Emax [29]: 93% | Activity [30]: 50% | Ratio [31]: 1.2
SMILES: CC(=O)N1CCc2c(c(N3CCCc4cc(-c5cnn(C)c5)c(C(F)F)cc43)nn2[C@H]2CC[C@H](CN3CCN(c4ccc5c(c4)C(=O)N(C4CCC(=O)NC4=O)C5=O)CC3)CC2)C1 (stereo partly drawn)
inhibition (VCaP [2]): Dose-Dependent Effect | Ratio IC50 (VCaP [5]): 100 | inhibition in vivo at 1 mg/kg (VCaP [7]): 87% | inhibition (LNCaP [9]): Dose-Dependent Effect | inhibition (VCaP [12]): Dose-Dependent Effect | inhibition at 0.01 µM [19]: 67% | inhibition at 0.001 µM [20]: 77% | inhibition at 0.01 µM [22]: 43% | inhibition (VCaP [23]): Dose-Dependent Effect | inhibition (LNCaP [24]): Dose-Dependent Effect | inhibition at 0.01 µM [25]: 70% | Activity [27]: Non-Toxic | inhibition in vivo at 0.3 mg/kg (VCaP [28]): 73% | inhibition at 0.001 µM [32]: > 95% | inhibition (CWR22R): Dose-Dependent Effect
